Laboratory results reported in patent publication US9637529B2, “Medicament for atrophy treatment or increasing cell growth” (SIMU TRADE CONSULTING GMBH & CO. LEASING KG, priority 2012, dated 2017).
Entries after “also recorded” stand apart in the source; their conditions may differ.

Key:
[1] = test system: human epithelial cell line (MCF-7); assay: H2O2-induced apoptosis, trypan-blue staining, MCF-7; format: cell-based; conditions: 200 mM H2O2, SERF2 5 μg/ml, 6 hours, serum-free
Protocol: (§1) Experiments were performed in 6-well plates containing 5 ml cell culture medium (serum-free) per well and were seeded at a cell density of 1*10^6 cells/well and cultured overnight. On the next day 200 mM H2O2 or 200 mM H2O2 and SERF2 (5 μg/ml) was added to cultures. After 6 hours of incubation, the adherent cells were harvested, washed 3 times in PBS and dead cells were detected by trypan-blue staining using light microscopy. Shown is the percentage of dead cells.
(§2) Trypan Blue staining is one of the most commonly used methods to determine the cell viability using light microscopy. Trypan blue can only stain cells if their membrane is damaged.
(§3) The question was asked whether SERF2 has an effect on growth factor deprivation- or stress-induced apoptosis. The experimental protocol included addition of Hydrogen peroxide (H2O2), which is known to cause cellular stress and consequently apoptotic death in doses below 200 μM (Cox A., Carcinogenesis. 2007, Vol. 28, 10). Furthermore apoptosis was induced by deprivation of granulocyte macrophage colony-stimulating factor (GM-CSF) in cultures of TF-1 cells. These cells are dependent on the presence of a growth factor which is absolutely necessary for growth and differentiation of TF-1 cells.

[2] = test system: human epithelial cell line (A431); assay: H2O2-induced apoptosis, trypan-blue staining, A431; format: cell-based; conditions: 200 mM H2O2, SERF2 5 μg/ml, 6 hours, serum-free
Protocol: as §1, §2, §3

TF-1 cells = assay: Growth factor deprivation apoptosis, caspase-3 ELISA, TF-1; format: cell-based, human; conditions: serum-free medium with or without GM-CSF, SERF2 5 μg/ml, 9.5 hours
Protocol: TF-1 cells were incubated under different culture conditions: FCS+GM-CSF (dark blue), serum-free medium+GM-CSF (5 μg/ml; pale blue), serum-free medium+GM-CSF+SERF2 (5 μg/ml; lime), serum-free medium+SERF2 (green) and serum-free medium only (red). After 9.5 hours culture supernatants were analyzed by an ELISA-technique for caspase-3 expression levels. Results are expressed as pNA in pmol/μl
(§4) Caspase-3 is a member of the cysteine aspartic acid-specific protease family and is a marker of an early event in apoptosis. Caspase-3 expression was measured using a commercially available kit. Briefly, culture supernatants of cells undergoing apoptosis after different treatments were harvested and incubated with a substrate labeled with p-nitroaniline (pNA), which produces a yellow color when it is cleaved by caspase-3. The amount of produced yellow color is proportional to the caspase-3 activity, which can be determined by an ELISA reader at 405 nm (Promega). The assay was performed essentially as described by the manufacturer (instruction manual of CaspACE™ Assay System, Promega).
(§5) The question was asked whether SERF2 has an effect on growth factor deprivation- or stress-induced apoptosis. The experimental protocol included addition of Hydrogen peroxide (H2O2), which is known to cause cellular stress and consequently apoptotic death in doses below 200 μM (Cox A., Carcinogenesis. 2007, Vol. 28, 10). […]

zebrafish = assay: Zebrafish blood cell concentration; format: in vivo
Protocol: FIG. 14: Changes in blood cell concentrations in zebrafish incubated in different doses of SERF2. Shown are mean values (blood cells/nl) and SEM. Asterisks indicate significant differences to control animals.
FIG. 17: Detection of blood cells (green arrows) in 7 dpf zebrafish (top image=control, lower image=SERF2-treated). To determine blood cell concentration the number of detected cells were divided by vessel volume.
SERF2 was administered by a) injection of the native protein into the yolk sac of 3 day post fertilization (dpf) animals and freshly fertilized eggs (2-8 cell stage) in various protein concentrations or chronic incubation with the native protein to supply it via diffusion. For in deep analysis of angiogenic effects flk-1 transgenic animals with gfp (green fluorescent protein) labelled endothelium were used. For all other experiments wildtype (wdt) animals were used.
A cast of the vascular bed was obtained by accumulation of the shifting vectors of moving erythrocytes from a number of subsequent difference pictures, as described previously (by Schwerte et al., supra). In parallel to this flk-1 transgenic animals, which show green fluorescing endothelium, were imaged.

711-3 cells = assay: H2O2-induced apoptosis, caspase-3 ELISA, 711-3; format: cell-based, human; conditions: serum-free medium with or without H2O2, SERF2 5 μg/ml, 9.5 hours
Protocol: 711-3 cells were incubated under different culture conditions: serum-free medium (dark blue), serum-free medium+SERF2 (5 μg/ml; lime) serum-free medium+SERF2+H2O2 (green) and serum-free medium+H2O2 (red). After 9.5 hours culture supernatants were analyzed by an ELISA-technique for caspase-3 expression levels. Results are expressed as pNA in pmol/μl.
as §4, §5

## SERF2: Small EDRK-rich factor 2, mature protein of 59 amino acids (SEQ ID NO: 1) (MTRGNQRELARQKNMKKQSDSVKGKRRDDGLSAAARKQRDSEIMQQKQKKANEKKEEPK; homo sapiens)
[1]
  protection from H2O2-induced apoptosis (percentage of dead cells), MCF-7: markedly reduced apoptosis; also recorded: protects a human epithelial cell line (MCF-7) from H2O2-induced apoptosis
[2]
  protection from H2O2-induced apoptosis (percentage of dead cells), A431: markedly reduced apoptosis; also recorded: protects a human epithelial cell line (A431) from H2O2-induced apoptosis
TF-1 cells
  apoptosis (caspase-3 levels) in TF-1 cells: markedly reduced apoptosis; also recorded: compensates for FCS and alleviates apoptosis
zebrafish; 7 dpf, incubation and injection routes
  blood cell concentrations by treatment group: all but one treatment group show significantly increased blood cell concentrations
zebrafish; zebrafish, different doses of SERF2
  increase in blood cell concentration compared to controls: 50 to 100%
711-3 cells
  apoptosis (caspase-3 levels) in 711-3 cells: markedly reduced apoptosis; also recorded: alleviates apoptosis
